Results as given in publication PMC9303812, “Asymmetrically Substituted m‐Terphenyl Phosphates Inhibit the Transcription Factor STAT5a” (Chembiochem, 2021).
Where two headings read alike, the source gives them in different places.

Target: T1, STAT5b (Homo sapiens, UniProt P51692)
T1 sequence (P51692 1-787): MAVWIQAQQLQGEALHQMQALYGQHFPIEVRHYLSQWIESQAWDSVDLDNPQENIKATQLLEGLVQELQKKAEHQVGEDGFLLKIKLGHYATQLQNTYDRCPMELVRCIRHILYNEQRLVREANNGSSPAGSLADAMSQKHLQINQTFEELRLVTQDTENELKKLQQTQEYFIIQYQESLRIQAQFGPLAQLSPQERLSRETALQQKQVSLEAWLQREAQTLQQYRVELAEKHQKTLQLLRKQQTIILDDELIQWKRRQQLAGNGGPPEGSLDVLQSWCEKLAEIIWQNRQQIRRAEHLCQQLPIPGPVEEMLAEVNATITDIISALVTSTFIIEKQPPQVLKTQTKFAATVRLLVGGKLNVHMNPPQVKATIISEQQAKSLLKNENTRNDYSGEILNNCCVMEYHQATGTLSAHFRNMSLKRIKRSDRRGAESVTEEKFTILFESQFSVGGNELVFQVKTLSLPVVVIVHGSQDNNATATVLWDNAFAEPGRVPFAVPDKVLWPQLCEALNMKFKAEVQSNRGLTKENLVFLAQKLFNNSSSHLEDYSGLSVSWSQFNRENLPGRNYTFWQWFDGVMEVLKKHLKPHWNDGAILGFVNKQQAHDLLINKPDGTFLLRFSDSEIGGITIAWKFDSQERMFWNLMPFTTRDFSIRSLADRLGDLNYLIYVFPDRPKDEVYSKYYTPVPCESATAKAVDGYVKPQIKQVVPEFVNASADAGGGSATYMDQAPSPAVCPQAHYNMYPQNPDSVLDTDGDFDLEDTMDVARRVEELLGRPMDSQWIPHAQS
Test: Fluorescence polarization (FP) binding assay, STAT5b
Protocol: Table S1: Activities of test compounds against STAT5a and STAT5b in FP assays . Experiments were carried out in triplicate (n = 3) unless stated otherwise. n/a: not applicable.
[a]data taken from the literature.[1]
Ki values were calculated from IC50 values using the published equation.[2] […]
Table S2: Activities of 12 against STAT5 proteins in FP assays.
Fluorescence polarization assays
Fluorescence polarization assays were essentially carried out as previously described.[1] These assays quantitate to which extent a test compound is able to interfere with binding between a STAT protein and a fluorescein-labeled phosphotyrosine-containing peptide, which is known to bind to the SH2 domain of the respective STAT protein. The following protein […]
concentrations were used: 100 nM for STAT1, 150 nM for STAT3, 30 nM for STAT4, 180 nM for STAT5a, 90 nM for STAT5b and 105 nM for STAT6. All peptides were used at a concentration of 10 nM. The following peptides were used: 5 -carboxyfluorescein -GpYDKPHVL for STAT1; 5-carboxyfluorescein -GpYLPQTV-NH2 for STAT3; 5-carboxyfluorescein-GpYLPQNID-OH for STAT4; 5-carboxyfluorescein-GpYLVLDKW for STAT5a/b, and 5-carboxyfluorescein-GpYVPWQDLI-OH for STAT6. As a buffer system, 10 mM Tris (pH 8.0), 50 mM NaCl, 1 mM EDTA, 1 mM DTT, 0.1 % Nonidet P-40 substitute, and 2 % DMSO in water was used. All compounds tested were incubated for 1 h with the protein. Subsequently, the fluorescein-labeled peptide was added and the fluorescence polarization was measured with an Infinite F500 plate reader (Tecan) after another hour. IC50 values were converted to Ki-values using the published equation.[2]

Ki (FP assay, Ki calculated from IC50 (n=3; 6 a n=2), read-out: STAT5b Ki) [µM]	IC50 (FP assay, n=3 (6a n=2), read-out: STAT5b IC50) [µM]	Compound	IC50 [µM]	Ki [µM]
		COc1cc(-c2cc(OP(=O)(O)O)cc(-c3cc(F)c(F)c(F)c3)c2)cc(OC)c1OC [6 b]	59.4 ± 3.4	29.2 ± 1.7
24.9 ± 3.3	50.7 ± 6.8	COc1cc(-c2cc(-c3cc(F)c(F)c(F)c3)cc(C(F)P(=O)(O)O)c2)cc(OC)c1OC (stereo not shown) [compound 12]		
